Like-named read-outs stand apart in the source and are kept apart here.
Columns and labels:
SARS-CoV-2 = experiment: microbe, parasite or virus in culture; type: cell-based; details: for EC50: read-out: Anti-SARS-COV-2 activity in Vero cells EC50; for EC90: read-out: Anti-SARS-COV-2 activity in Vero cells EC90
[1] = target: SARS-CoV-2 RdRp complex (nsp12-nsp7-nsp8) (Severe acute respiratory syndrome coronavirus 2, UniProt P0DTD1); type: biochemical
[2] = Severe acute respiratory syndrome coronavirus 2, Vero, 48 h
[3] = Severe acute respiratory syndrome coronavirus 2, Vero, 48 h, Vero cells, virus yield, 48 h post-infection
[4] = Severe acute respiratory syndrome coronavirus 2, Vero cells, virus yield, 48 h post-infection

Row | Compound | EC50 (SARS-CoV-2; [3]) [µM] | other results
1 | CC(C)OC(=O)[C@H](C)N[P@](=O)(OC[C@H]1O[C@@H](n2ncc(=O)[nH]c2=O)C(O)C1O)Oc1ccccc1 (stereo partly drawn) | – | EC50 (SARS-CoV-2; [2]): < 10 µM
2 | Nc1cnn([C@@H]2O[C@H](CO)C(O)C2O)c(=O)n1 (stereo partly drawn) | < 10 | –
3 | COc1cnn([C@@H]2O[C@H](CO)C(O)C2O)c(=O)n1 (stereo partly drawn) | < 10 | –
4 | CC(C)OC(=O)[C@H](C)N[P@](=O)(OC[C@H]1O[C@@H](n2ncc(=O)[nH]c2=O)[C@](C)(O)C1O)Oc1ccccc1 (stereo partly drawn) | – | EC50 (SARS-CoV-2; [2]): 10 µM
5 | Nc1nccc2c1ncn2[C@@H]1O[C@H](CO)C(O)C1O (stereo partly drawn) | 6 | EC90 (SARS-CoV-2; [4]): 15.2 µM
6 | OC[C@H]1O[C@@H](n2cnc3c(S)ncnc32)C(O)C1O (stereo partly drawn) | 11.1 | EC90 (SARS-CoV-2; [4]): 23.5 µM
7 | CC1(O)C(O)[C@@H](CO)O[C@H]1n1ccc(N)nc1=O (stereo partly drawn) | 9.2 | EC90 (SARS-CoV-2; [4]): 29.6 µM
8 | CC1(O)C(O)[C@@H](CO)O[C@H]1n1cc(F)c2c(N)ncnc21 (stereo partly drawn) | 7.6 | EC90 (SARS-CoV-2; [4]): 28.8 µM
9 | CC(C)OC(=O)[C@H](C)NP(=O)(OC[C@H]1O[C@@H](n2cnc3c(N)ncnc32)C(C)(O)C1O)Oc1ccccc1 (stereo partly drawn) | – | EC50 (SARS-CoV-2; [2]): < 10 µM
10 | COc1ncnc2c1c(C(F)(F)F)cn2[C@@H]1O[C@H](CO)C(O)C1(C)O (stereo partly drawn) | < 10 | –
11 | CC1(F)C[C@@H](CO)O[C@H]1n1ccc(=O)[nH]c1=O (stereo partly drawn) | 10 | –
12 | [N-]=[N+]=NC1C(O)[C@@H](CO)O[C@H]1n1ccc(=O)[nH]c1=O (stereo partly drawn) | < 10 | –
13 | CC(C)OC(=O)[C@H](C)N[P@@](=O)(OC[C@H]1O[C@@H](n2ccc(=O)[nH]c2=O)C(F)C1O)Oc1ccccc1 (stereo partly drawn) | – | EC50 (SARS-CoV-2; [2]): < 10 µM
14 | C#CC1C(O)[C@@H](CO)O[C@H]1n1cc(F)c(=O)[nH]c1=O (stereo partly drawn) | < 10 | –
15 | [N-]=[N+]=NC1C[C@@H](COC(=O)c2ccccc2)O[C@H]1n1ccc(=O)[nH]c1=O (stereo partly drawn) | 10 | –
16 | O=c1ccn([C@@H]2O[C@H](CO)CC2F)c(=O)[nH]1 (stereo partly drawn) | < 10 | –
17 | NC1C=CN([C@@H]2O[C@H](CO)CC2(Cl)Cl)C(=O)N1 (stereo partly drawn) | < 10 | –
18 | Nc1ccn([C@@H]2O[C@@](CO)(COC(F)F)[C@@H](O)[C@H]2F)c(=O)n1 | < 10 | –
19 | Nc1ccn([C@@H]2O[C@@](CO)(C3CCO3)C(O)C2F)c(=O)n1 (stereo partly drawn) | < 10 | –
20 | C#C[C@]1(CO)O[C@@H](n2cnc3c(N)ncnc32)C(O)C1O (stereo partly drawn) | < 10 | –

Row | Compound | EC50 (SARS-CoV-2; [3]) [µM] | other results
21 | C#C[C@]1(CO)O[C@@H](N2C=CC(N)NC2=O)[C@H](O)[C@@H]1O (stereo partly drawn) | < 10 | –
22 | C#C[C@]1(CO[P@@](=O)(N[C@@H](C)C(=O)OC(C)C)Oc2ccccc2)O[C@@H](n2ccc(=O)[nH]c2=O)[C@H](O)[C@@H]1O | – | EC50 (SARS-CoV-2; [2]): < 10 µM
23 | O=c1ccn([C@@H]2C[C@H](CO)C(O)C2O)c(=O)[nH]1 (stereo partly drawn) | < 10 | –
24 | Nc1nc2c(ncn2[C@@H]2C[C@H](CO)C(O)C2O)c(=O)[nH]1 (stereo partly drawn) | < 10 | –
25 | Nc1ncnc2c1ccn2[C@@H]1C[C@H](CO)C(O)C1O (stereo partly drawn) | < 10 | –
26 | Nc1ncnc2c1ncn2[C@@H]1C[C@H](CO)C(O)C1O (stereo partly drawn) | < 10 | –
27 | CC(C)OC(=O)[C@H](C)NP(=O)(OC[C@H]1C[C@@H](n2cnc3c(N)ncnc32)C(O)C1O)Oc1ccccc1 (stereo partly drawn) | – | EC50 (SARS-CoV-2; [2]): < 10 µM
28 | CC(C)C(=O)OC[C@@H]1OC[C@H](n2cnc3c(Cl)nc(Cl)nc32)O1 | 2.3 | EC90 (SARS-CoV-2; [4]): 6.5 µM
29 | COc1nc(Cl)nc2c1ncn2[C@H]1CO[C@@H](CO)O1 | < 10 | –
30 | Nc1nc2c(ncn2[C@H]2CO[C@@H](CO)O2)c(=O)[nH]1 | – | EC50 (SARS-CoV-2; [2]): > 10 µM
31 | Nc1nc(N)c2ncn([C@H]3CO[C@@H](CO)O3)c2n1 | 10 | –
32 | CCOC(=O)[C@H](C)NP(=O)(OC[C@@H]1OC[C@H](n2cnc3c(OC)nc(N)nc32)O1)Oc1ccccc1 (stereo partly drawn) | – | EC50 (SARS-CoV-2; [2]): > 10 µM
33 | Nc1nc(Cl)nc2c1ncn2[C@H]1CO[C@@H](CO)O1 | > 10 | –
34 | OC[C@@H]1OC[C@H](n2cnc3c(Cl)nc(Cl)nc32)O1 | < 10 | –
35 | CC(C)OC(=O)[C@H](C)N[P@](=O)(OC[C@@H]1OC[C@H](n2cnc3c(Cl)nc(Cl)nc32)O1)Oc1ccccc1 | – | EC50 (SARS-CoV-2; [2]): > 10 µM
36 | OC[C@@H]1CC[C@H](n2cnc3c(Cl)nc(Cl)nc32)C1 | < 10 | –
37 | OC[C@@H]1C=C[C@H](n2cnc3c(Cl)nc(Cl)nc32)C1 | < 10 | –
38 | CC(C)OC(=O)[C@H](C)NP(=O)(OC[C@@H]1C=C[C@H](n2cnc3c(Cl)nc(Cl)nc32)C1)Oc1ccccc1 (stereo partly drawn) | – | EC50 (SARS-CoV-2; [2]): < 10 µM
39 | CC(C)OC(=O)[C@H](C)NP(=O)(OC[C@@H]1CC[C@H](n2cnc3c(Cl)nc(Cl)nc32)C1)Oc1ccccc1 (stereo partly drawn) | – | EC50 (SARS-CoV-2; [2]): < 10 µM
40 | Nc1ncnc2c([C@H]3O[C@@H](CO)C(O)C3O)cnn12 (stereo partly drawn) | < 10 | –

Row | Compound | EC50 (SARS-CoV-2; [3]) [µM] | other results
41 | Nc1ncnc2c([C@@H]3C[C@H](CO)C(O)C3O)c[nH]c12 (stereo partly drawn) | < 10 | –
42 | OC[C@H]1C[C@@H](c2c[nH]c3c(O)ncnc23)C(O)C1O (stereo partly drawn) | < 10 | –
43 | O=c1[nH]c(=O)n([C@H]2C[C@@H](CO)C(O)C2O)cc1F (stereo partly drawn) | < 10 | –
44 | Nc1nc(O)c2[nH]cc([C@@H]3C[C@H](CO)C(O)C3O)c2n1 (stereo partly drawn) | < 10 | –
45 | OC[C@@H]1O[C@H](n2nnc3c(O)ncnc32)C(O)C1O (stereo partly drawn) | < 10 | –
46 | Nc1ncnc2c1cnn2[C@H]1O[C@@H](CO)C(O)C1O (stereo partly drawn) | < 10 | –
47 | OC[C@@H]1O[C@H](n2ncc3c(S)ncnc32)C(O)C1O (stereo partly drawn) | < 10 | –
48 | O=c1ccn([C@H]2CC(F)(F)[C@@H](CO)S2)c(=O)[nH]1 | < 10 | –
49 | CC1(O)C(O)[C@H](n2ccc(NO)nc2=O)S[C@@H]1CO (stereo partly drawn) | 1.2 | EC90 (SARS-CoV-2; [4]): 8.7 µM
50 | CC(C)OC(=O)[C@H](C)NP(=O)(OC[C@H]1O[C@@H](n2ccc(N)nc2=O)C(O)C1(C)O)Oc1ccccc1 (stereo partly drawn) | – | EC50 (SARS-CoV-2; [2]): 9.3 µM; EC90 (SARS-CoV-2; [2]): > 10 µM
51 | CC1(O)C(O)[C@H](n2ccc(N)nc2=O)O[C@@H]1CO (stereo partly drawn) | 0.4 | EC90 (SARS-CoV-2; [4]): 3.6 µM
52 | O=c1nc(NO)ccn1C1CCC(CO)O1 (stereo not drawn) | 2.5 | EC90 (SARS-CoV-2; [4]): 83.4 µM
53 | O=c1ccn([C@H]2CC[C@@H](CO)O2)c(=O)[nH]1 | 10 | –
54 | Nc1ccn([C@H]2CC[C@@H](CO)O2)c(=O)n1 | < 10 | –
55 | O=c1cnn([C@@H]2O[C@H](CO)C(O)C2O)c(=O)[nH]1 (stereo partly drawn) [drawing 46] | 0.75 | EC90 (SARS-CoV-2; [4]): 2.5 µM
56 | C[C@@]1(O)C(O)[C@@H](CO)O[C@H]1n1ncc(=O)[nH]c1=O (stereo partly drawn) [drawing 50] | 10 | –
57 | C[C@@]1(O)C(O)[C@@H](CO)O[C@H]1n1ncc(=O)[nH]c1=O (stereo partly drawn) [drawing 58] | – | EC50 (SARS-CoV-2; Vero cells, virus yield, 48 h post-infection): < 10 µM
58 | O=c1cnn([C@@H]2O[C@H](CO)C(O)C2O)c(=O)[nH]1 (stereo partly drawn) [drawing 105] | – | inhibition of RNA synthesis by RdRp complex ([1]; concentrations of 1, 10 and 100 μM): not significantly inhibited; inhibition of RNA synthesis by RdRp complex ([1]; concentrations of 250 and 500 μM): significant inhibition
